IC50 and TD50 data for 24 compounds are collected here from US8008303B2, “Biphenyl derivatives and their use in treating hepatitis C” (AstraZeneca AB, priority 2005, dated 2011).

Like-named read-outs stand apart in the source and are kept apart here.

Series [1] has as its system HCV replicon cells Huh 9B. The experiment in a line: HCV replicon assay (luciferase readout). The class given is cell-based. The procedure, abridged: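 Compounds, made up at twice final strength (final DMSO 1%), were added to subgenomic replicon cells one day after plating. Incubation then ran 72 h at 37 °C, 5% CO2, without G418. Replication was quantified as firefly luciferase luminescence in lysed cells, with cytotoxicity assessed on a duplicate clear plate.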
On the technique in general: A replicon is a self-replicating genome or part of one, used to study replication in cells.

Series [2] relates to HCV replicon cells Huh 9B. It counts as cell-based.
Where [3] appears, read: concentration reducing total cell area by 50% relative to DMSO controls, methylene blue, absorbance 620 nm, 72 h incubation.
Where [4] appears, read: Hepatitis C virus, 72 h, concentration reducing replicon level (luciferase activity) by 50% vs untreated cell control, 72 h incubation.

Broadly, the IC50 is the concentration at which inhibition is half-maximal. Low readings indicate greater potency in that assay, high ones weaker potency in that assay.

In the case of `CCCS(=O)(=O)N1CCN(Cc2ccc(NC(=O)c3ccc(-c4cc(C(=O)Nc5ccc(N6CCOCC6)cc5C)ccc4OC)cc3)cc2)CC1` [Example 260, 6-Methoxy-biphenyl-3,4′-dicarboxylic acid 3-[(2-methyl-4-morpholin-4-yl-phenyl)-amide] 4′-({4-[4-(propane-1-sulfonyl)-piperazin-1-ylmethyl]-phenyl}-amide)], the IC50 in series [1] was < 1000 nM. Also, the TD50 entry in series [2] (setting [3]) was “* (* < 50 μM)”.
With `CCC(CC)C(=O)Nc1ccc(C)c(-c2ccc(C(=O)Nc3ccc(CN4CCS(=O)(=O)CC4)cc3)cc2)c1` [Example 181, 5′-(2-Ethyl-butyrylamino)-2′-methyl-biphenyl-4-carboxylic acid [4-(1,1-dioxo-1lambda*6*-thiomorpholin-4-ylmethyl)-phenyl]-amide], the IC50 in series [1] (setting [4]) was < 1000 nM. Also, the TD50 result in series [2] (setting [3]) is recorded as “* (* < 50 μM)”.
The like results for `Cc1ccc(NC(=O)CC2CCCCC2)cc1-c1ccc(C(=O)Nc2ccc(CN3CCS(=O)(=O)CC3)cc2)cc1` [Example 165, 5′-(2-Cyclohexyl-acetylamino)-2′-methyl-biphenyl-4-carboxylic acid [4-(1,1-dioxo-1lambda*6*-thiomorpholin-4-ylmethyl)-phenyl]-amide] were, in that order, < 1000 nM and “* (* < 50 μM)”.
The like results for `Cc1ccc(NC(=O)C2CCCCC2)cc1-c1ccc(C(=O)Nc2ccc(CO)cc2)cc1` [Example 232, 5′-(Cyclohexanecarbonyl-amino)-2′-methyl-biphenyl-4-carboxylic acid (4-hydroxymethyl-phenyl)-amide] were, in that order, < 1000 nM and “* (* < 50 μM)”.
Take `O=C(Nc1ccc2cc[nH]c2c1)c1ccc(-c2cccc(C(=O)Nc3ccc(N4CCOCC4)cc3)c2)cc1` [Example 60, Biphenyl-3,4′-dicarboxylic acid 4′-[(1H-indol-6-yl)-amide] 3-[(4-morpholin-4-yl-phenyl)-amide]]: the IC50 in series [1] was < 1000 nM. The TD50 entry in series [2] was “* (key: * < 50 μM; ** > 50 μM)”.
The compound `Cc1ccc(NC(=O)C2CC2)cc1-c1ccc(C(=O)Nc2ccccc2CN2CCCCC2)cc1` [Example 224, 5′-(Cyclopropanecarbonyl-amino)-2′-methyl-biphenyl-4-carboxylic acid (2-piperidin-1-ylmethyl-phenyl)-amide] registered an IC50 in series [1] (setting [4]) of 1000 to 5000 nM. Besides, the TD50 entry in series [2] (setting [3]) is listed as “* (* < 50 μM)”.
The like results for `CN(C)S(=O)(=O)N1CCN(Cc2ccc(NC(=O)c3ccc(-c4cc(NC(=O)NC5CCCCC5)ccc4Cl)cc3)cc2)CC1` [Example 255, 2′-Chloro-5′-(3-cyclohexyl-ureido)-biphenyl-4-carboxylic acid [4-(4-dimethylsulfamoyl-piperazin-1-ylmethyl]-phenyl}-amide] were, in that order, < 1000 nM and “* (* < 50 μM)”.
Turning to `Cc1ccc(NC(=O)c2ccc(CN3CCS(=O)(=O)CC3)cc2)cc1-c1ccc(C(=O)Nc2ccc(CN3CCS(=O)(=O)CC3)cc2)cc1` [Example 161, 5′-[4-(1,1-Dioxo-1lambda*6*-thiomorpholin-4-ylmethyl)-benzoylamino]-2′-methyl-biphenyl-4-carboxylic acid [4-(1,1-dioxo-1lambda*6*-thiomorpholin-4-ylmethyl)-phenyl]-amide], in series [1] (setting [4]), the IC50 was in the range of 1000 to 5000 nM. For the same compound, in series [2] (setting [3]), the TD50 result is recorded as “* (* < 50 μM)”.
The like results for `CCCS(=O)(=O)N1CCN(Cc2ccc(NC(=O)c3ccc(-c4cc(NC(=O)[C@H]5CCCCN5)ccc4Cl)cc3)cc2)CC1` [Example 251, (R)-Piperidine-2-carboxylic acid {6-chloro-4′-[4-(4-(propane-1-sulfonyl)-piperazin-1-ylmethyl)-phenylcarbamoyl]-biphenyl-3-yl}-amide] were, in that order, < 1000 nM and “* (* < 50 μM)”.
Regarding `Cc1ccc(C(=O)Nc2ccc(N3CCOCC3)cc2)cc1-c1ccc(C(=O)Nc2cccc(Br)c2)cc1` [Example 1, 6-Methyl-biphenyl-3,4′-dicarboxylic acid 4′-[(3-bromo-phenyl)-amide] 3-[(4-morpholin-4-yl-phenyl)-amide]], in series [1], the IC50 lay in the range of 1000 to 5000 nM. The TD50 entry in series [2] is given as “** (key: * < 50 μM; ** > 50 μM)”.
In series [1], `COCCNC(=O)c1ccc(C)c(-c2ccc(C(=O)Nc3ccc(CN4CCS(=O)(=O)CC4)cc3)cc2)c1` [Example 126, 6-Methyl-biphenyl-3,4′-dicarboxylic acid 4′-{[4-(1,1-dioxo-1lambda*6*-thiomorpholin-4-ylmethyl)-phenyl]-amide} 3-[(2-methoxy-ethyl)-amide]] gave an IC50 of 1000 to 5000 nM. Also, the TD50 result in series [2] is reported as “* (key: * < 50 μM; ** > 50 μM)”.
On to `Cc1ccc(NC(=O)c2ccco2)cc1-c1ccc(C(=O)Nc2ccc(N3CCOCC3)cc2)cc1` [Example 18, Furan-2-carboxylic acid [6-methyl-4′-(4-morpholin-4-yl-phenylcarbamoyl)-biphenyl-3-yl]-amide], for which, in series [1] (setting [4]), the IC50 was 1000 to 5000 nM. Besides, the TD50 entry in series [2] (setting [3]) was “* (* < 50 μM)”.
Take `Cc1ccc(NC(=O)C2CCC2)cc1-c1ccc(C(=O)Nc2ccc(CN3CCS(=O)(=O)CC3)cc2)cc1` [Example 195, 5′-(Cyclobutanecarbonyl-amino)-2′-methyl-biphenyl-4-carboxylic acid [4-(1,1-dioxo-1lambda*6*-thiomorpholin-4-ylmethyl)-phenyl]-amide]: in series [1] (setting [4]), the IC50 is < 1000 nM. Further, the TD50 result in series [2] (setting [3]) is on record as “* (* < 50 μM)”.
For `COc1ccc(S(=O)(=O)Nc2ccc(N3CCOCC3)cc2)cc1-c1ccc(C(=O)Nc2ccc(CN3CCN(S(=O)(=O)N(C)C)CC3)cc2)cc1` [Example 247, 2′-Methoxy-5′-(4-morpholin-4-yl-phenylsulfamoyl)-biphenyl-4-carboxylic acid [4-(4-dimethylsulfamoyl-piperazin-1-ylmethyl)-phenyl]-amide], the IC50 in series [1] (setting [4]) is < 1000 nM. In series [2] (setting [3]), the TD50 result was “* (* < 50 μM)”.
`O=C(Nc1ccc(CN2CCS(=O)(=O)CC2)cc1)c1ccc(-c2cccc(C(=O)Nc3ccc(N4CCOCC4)cc3)c2)cc1` [Example 120, Biphenyl-3,4′-dicarboxylic acid 4′-{[4-(1,1-dioxo-1lambda*6 *-thiomorpholin-4-ylmethyl)-phenyl]-amide} 3-[(4-morpholin-4-yl-phenyl)-amide]] returned an IC50 in series [1] of 1000 to 5000 nM. In addition, in series [2], the TD50 entry is on record as “** (key: * < 50 μM; ** > 50 μM)”.
`Cc1ccc(NC(=O)c2ccc(N3CCOCC3)cc2)cc1-c1ccc(C(=O)NCc2cccc(Cl)c2)cc1` [Example 94, 2′-Methyl-5′-(4-morpholin-4-yl-benzoylamino)-biphenyl-4-carboxylic acid 3-chloro-benzylamide] displayed an IC50 in series [1] (setting [4]) of 1000 to 5000 nM. The TD50 result in series [2] (setting [3]) was “** (** > 50 μM)”.
Consider `Cc1cc(C(=O)Nc2ccc(N3CCOCC3)cc2)ccc1-c1cccc(C(=O)Nc2cccc(Br)c2)c1` [Example 64, 2′-Methyl-biphenyl-3,4′-dicarboxylic acid 3-[(3-bromo-phenyl)-amide] 4′-[(4-morpholin-4-yl-phenyl)-amide]], for which the IC50 in series [1] was < 1000 nM. In series [2], the TD50 entry is “* (key: * < 50 μM; ** > 50 μM)”.
The like results for `COc1cccc(NC(=O)c2cccc(-c3ccc(C(=O)Nc4ccc(N5CCOCC5)cc4)cc3C)c2)c1` [Example 62, 2′-Methyl-biphenyl-3,4′-dicarboxylic acid 3-[(3-methoxy-phenyl)-amide] 4′-[(4-morpholin-4-yl-phenyl)-amide]] were, in that order, < 1000 nM and “* (key: * < 50 μM; ** > 50 μM)”.
Regarding `Cc1ccc(NC(=O)c2ccc(Br)cc2)cc1-c1ccc(C(=O)Nc2ccc(CN3CCS(=O)(=O)CC3)cc2)cc1` [Example 154, 5′-(4-Bromo-benzoylamino)-2′-methyl-biphenyl-4-carboxylic acid [4-(1,1-dioxo-1lambda*6*-thiomorpholin-4-ylmethyl)-phenyl]-amide], in series [1] (setting [4]), the IC50 was < 1000 nM. Moreover, the TD50 result in series [2] (setting [3]) is listed as “* (* < 50 μM)”.
`Cc1ccc(C(=O)Nc2ccc(N3CCOCC3)cc2)cc1-c1ccc(C(=O)NCCc2cccs2)cc1` [Example 11, 6-Methyl-biphenyl-3,4′-dicarboxylic acid 3-[(4-morpholin-4-yl-phenyl)-amide] 4′-[(2-thiophen-2-yl-ethyl)-amide]] came in with an IC50 in series [1] of 1000 to 5000 nM. The TD50 result in series [2] was “** (key: * < 50 μM; ** > 50 μM)”.
Turning to `Cc1ccc(NC(=O)C2CCCCC2)cc1-c1ccc(C(=O)Nc2ccc(CN(C)C)cc2)cc1` [Example 222, 5′-(Cyclohexanecarbonyl-amino)-2′-methyl-biphenyl-4-carboxylic acid (4-dimethylaminomethyl-phenyl)-amide], the half-inhibitory concentration (IC50) in series [1] (setting [4]) fell in the range of 1000 to 5000 nM. Further, the TD50 entry in series [2] (setting [3]) was “* (* < 50 μM)”.
As to `COc1cccc(C(=O)Nc2ccc(-c3cc(C(=O)Nc4ccc(N5CCOCC5)cc4)ccc3C)cc2)c1` [Example 112, 4′-(3-Methoxy-benzoylamino)-6-methyl-biphenyl-3-carboxylic acid (4-morpholin-4-yl-phenyl)-amide], in series [1] (concentration reducing replicon level (luciferase activity) by 50% vs untreated cell control, 72 h incubation), the IC50 was 1000 to 5000 nM. For the same compound, the TD50 result in series [2] (setting [3]) is “* (* < 50 μM)”.
Consider `Cc1ccc(C(=O)Nc2ccc(N3CCOCC3)cc2)cc1-c1ccc(C(=O)Nc2ccc(N)cc2)cc1` [Example 53, 6-Methyl-biphenyl-3,4′-dicarboxylic acid 4′-[(4-amino-phenyl)-amide] 3-[(4-morpholin-4-yl-phenyl)-amide]], for which, in series [1], the IC50 was 1000 to 5000 nM. For the same compound, the TD50 entry in series [2] is recorded as “** (key: * < 50 μM; ** > 50 μM)”.
As to `CC(=O)Nc1ccc(NC(=O)c2ccc(-c3cc(NC(=O)c4ccc(N5CCOCC5)cc4)ccc3C)cc2)cc1` [Example 86, 2′-Methyl-5′-(4-morpholin-4-yl-benzoylamino)-biphenyl-4-carboxylic acid (4-acetylamino-phenyl)-amide], the IC50 in series [1] (setting [4]) was 1000 to 5000 nM. Besides, the TD50 entry in series [2] (setting [3]) was “** (** > 50 μM)”.
